The subject of experiment [1] is CD4+ T cell. The experiment is described as follows: Effect on HIV-1 insertion biases in human CD+ T cells assessed as insertion rate per chromosome at 500 nM incubated for 6 hrs. As to conditions: Human immunodeficiency virus 1. The format is functional, cell-based.
Experiment [2] has as its system CD4+ T cell. The experiment is described as follows: Upregulation of protein-coding genes proximal to super enhancers in activated human CD+ T cells at 500 nM incubated for 6 hrs by transcriptional profiling relative to coding genes without SE. The format is functional, cell-based.
Experiment [3] concerns CD4+ T cell. The experiment is described as follows: Effect on spatial localization of HIV-1 in human CD+ T cells at 500 nM incubated for 6 hrs followed by infection for 72 hrs by 3D immuno-DNA FISH assay. It counts as functional, cell-based. The note with it: Human immunodeficiency virus 1, time 78.0 hrs.
Experiment [4] deals with T1, Bromodomain and extra-terminal motif (BET) (Homo sapiens) (UniProt P25440+O60885+Q58F21+Q15059). As to conditions: CD4+ T cell, dose 500.0 nM, time 20.0 hrs.
Experiment [5] concerns the target T1, Bromodomain and extra-terminal motif (BET) (Homo sapiens). The note with it: CD4+ T cell, dose 500.0 nM, time 20.0 hrs. The source holds these as a separate data set.
For experiment [6], the system named is CD4+ T cell. The experiment is described as follows: Effect on spatial localization of recurrent integration genes of HIV-1 in human CD+ T cells at 500 nM incubated for 6 hrs followed by infection for 72 hrs by 3D immuno-DNA FISH assay. It counts as functional, cell-based. The note with it: Human immunodeficiency virus 1, time 78.0 hrs.
Experiment [7] concerns CD4+ T cell. Nature of the experiment: Down regulation of protein-coding genes proximal to super enhancers in activated human CD+ T cells at 500 nM incubated for 6 hrs by transcriptional profiling relative to coding genes without SE. The format is functional, cell-based.

Activity calls are given as the source filed them. No cut-off for these calls is given here.

Turning to `Cc1sc2c(c1C)C(c1ccc(Cl)cc1)=N[C@@H](CC(=O)OC(C)(C)C)c1nnc(C)n1-2`, the outcome in experiment [1], in experiment [3] and in experiment [6] was inactive. Moreover, the result in experiment [2] and in experiment [7] was Active. Moreover, the inhibition result in experiment [4] and in experiment [5] was “Active” each time.

(Values after ChEMBL document CHEMBL5712086, “Spatially clustered loci with multiple enhancers are frequent targets of HIV-1 integration” (Nat Commun, 2019).)
